This is an account of results in patent US20120214862A1, “MODULATION OF FACTOR 7 EXPRESSION” (ISIS Pharmaceuticals, Inc., priority 2009, published 2012).

In the oligonucleotide strings, read from the 5' end, every base follows the letter of its sugar. An asterisk marks phosphorothioate; unmarked linkages are phosphodiester. Other units and linkages are bracketed, terminal groups are in braces. A string of capitals states the bases alone. e = 2'-O-(2-methoxyethyl) (MOE); [5mC] = 5-methylcytosine; d = 2'-deoxy (DNA)

Type in all cases: cell-based
In data set [1] the test system is human Factor 7 mRNA. Kind of data set: Dose-dependent antisense inhibition of human Factor 7 in HepB3 cells, transfection with lipofectin. To be noted: lipofectin, HepB3 cells, 16 hours. The protocol:
Cells were plated at a density of 4,000 cells per well and treated with lipofectin reagent with 3.125 nM, 6.25 nM, 12.5 nM, 25 nM, 50 nM, and 100 nM concentrations of antisense oligonucleotide, as indicated in Table 3. After a treatment period of approximately 16 hours, RNA was isolated from the cells and Factor 7 mRNA levels were measured by real-time RT-PCR, as described herein. Human Factor 7 primer probe set RTS 2927 (forward sequence: […], incorporated herein as SEQ ID NO: 164; reverse sequence: […], incorporated herein as SEQ ID NO: 165; probe sequence: TGGGTGGTCTCCGCGGCCX, incorporated herein as SEQ ID NO: 166) was used to measure mRNA levels. Factor 7 mRNA levels were adjusted according to total RNA content as measured by RIBOGREEN®. Results are presented as percent inhibition of Factor 7, relative to untreated control cells.
Cells were plated at a density of 4,000 cells per well and transfected using lipofectin reagent with 6.25 nM, 12.5 nM, 25.0 nM, 50.0 nM, and 100.0 nM concentrations of antisense oligonucleotide, as indicated in Table 7. After a treatment period of approximately 16 hours, RNA was isolated from the cells and Factor 7 mRNA levels were measured by real-time RT-PCR, as described herein. Human Factor 7 primer probe set RTS 2927 was used to measure mRNA levels. Factor 7 mRNA levels were adjusted according to total RNA content as measured by RIBOGREEN®. Results are presented as percent inhibition of Factor 7, relative to untreated control cells.
(§1) Cells were plated at a density of 4,000 cells per well and transfected using lipofectin reagent with 3.125 nM, 6.25 nM, 12.5 nM, 25 nM, 50 nM, and 100 nM concentrations of antisense oligonucleotide, as specified in Table 14. After a treatment period of approximately 16 hours, RNA was isolated from the cells and Factor 7 mRNA levels were measured by quantitative real-time PCR. Human Factor 7 primer probe set RTS 2927 was used to measure mRNA levels. Factor 7 mRNA levels were adjusted according to total RNA content, as measured by RIBOGREEN®. Results are presented as percent inhibition of Factor 7, relative to untreated control cells.

The subject of data set [2] is human Factor 7 mRNA. Kind of data set: Antisense inhibition of human Factor 7 mRNA in HepB3 cells, lipofectin, 50 nM, real-time RT-PCR. The conditions noted are these: HepB3 cells. In a few lines: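 HepB3 cells were transfected by lipofectin with 50 nM antisense oligonucleotide and harvested after about 24 h. Factor 7 mRNA was measured by real-time RT-PCR (primer probe set RTS 2927 in some runs), normalized to RIBOGREEN total RNA, and reported as percent inhibition versus untreated control.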

The test system of data set [3] is human Factor 7 mRNA. Kind of data set: Dose-dependent antisense inhibition of human Factor 7 in HepB3 cells, transfection with electroporation. The protocol: as §1, with “The gapmers were also transfected via electroporation and their dose-dependent inhibition of human Factor 7 mRNA was measured. Cells” for “Cells”, “20,000” for “4,000”, “via electroporation” for “using lipofectin reagent”, “μM,” for “nM,”, “μM” for “nM”, “15.” for “14.”
Cells were plated at a density of 20,000 cells per well and transfected via electroporation with 3.125 μM, 6.25 μM, 12.5 μM, 25 μM, 50 μM, and 100 μM concentrations of antisense oligonucleotide, as specified in Table 16. After a treatment period of approximately 16 hours, RNA was isolated from the cells and human Factor 7 mRNA levels were measured by quantitative real-time PCR. Human Factor 7 primer probe set RTS 2927 was used to measure mRNA levels. Factor 7 mRNA levels were adjusted according to total RNA content, as measured by RIBOGREEN®. Results are presented as percent inhibition of Factor 7, relative to untreated control cells.

[4] abbreviates: gapmers targeted to nucleobases 15188 to 15211 of SEQ ID NO: 1 (Table 13).
[5] abbreviates: 3.125 μM, 16 hours (Example 7, Table 15).
Setting [6] is: 3.125 μM, 16 hours (Example 8, Table 16).
The mark [7] stands for this setting: 6.25 μM, 16 hours (Example 7, Table 15).
[8] abbreviates: 6.25 μM, 16 hours (Example 8, Table 16).
Setting [9] is: 12.5 μM, 16 hours (Example 7, Table 15).
The mark [10] stands for this setting: 12.5 μM, 16 hours (Example 8, Table 16).
Setting [11] is: 25 μM, 16 hours (Example 7, Table 15).
The mark [12] stands for this setting: 25 μM, 16 hours (Example 8, Table 16).
The mark [13] stands for this setting: 50 μM, 16 hours (Example 7, Table 15).
Setting [14] is: 50 μM, 16 hours (Example 8, Table 16).
Where [15] appears, read: 100 μM, 16 hours (Example 7, Table 15).
[16] abbreviates: 100 μM, 16 hours (Example 8, Table 16).

As to “422229 (antisense eA*eT*dG*d[5mC]*dA*dT*dG*dG*dT*dG*dA*dT*dG*d[5mC]*dT*eT*e[5mC]*eT*eG*eA) [compound 422229]”, the “percent inhibition of Factor 7 mRNA, relative to untreated control cells” value was 21% in data set [1] (3.125 nM); 53% in data set [1] (12.5 nM); 72% in data set [1] (25 nM); 86% in data set [1] (50 nM); 92% in data set [1] (100 nM); 32% in data set [1]. Also, the “percent inhibition of Factor 7 mRNA, relative to untreated control cells” value in data set [3] (setting [5]) is recorded as 21%; in data set [3] (setting [6]), 30%; in data set [3] (setting [7]) it was 30%; in data set [3] (setting [8]), 45%; in data set [3] (setting [9]), 33%; in data set [3] (setting [10]), 67%. For the same substance, the “percent inhibition of Factor 7 mRNA, relative to untreated control cells” value in data set [3] (setting [11]) is given as 44%; in data set [3] (setting [12]) it was 79%; in data set [3] (setting [13]), 65%; in data set [3] (setting [14]) it was 90%; in data set [3] (setting [15]) it was 77%; in data set [3] (setting [16]) it was 92%. Moreover, the “% Inhibition of human Factor 7 mRNA levels” value (“% Inhibition” for short) in data set [2] (setting [4]) is given as 71%.
As to “422152 (antisense eA*eT*eG*d[5mC]*dA*dT*dG*dG*dT*dG*dA*dT*dG*d[5mC]*dT*dT*d[5mC]*eT*eG*eA) [compound 422152]”, the “percent inhibition of Factor 7 mRNA, relative to untreated control cells” value stood at 18% in data set [1] (3.125 nM); 47% in data set [1] (12.5 nM); 67% in data set [1] (25 nM); 83% in data set [1] (50 nM); 89% in data set [1] (100 nM); 29% in data set [1]. Also, the “percent inhibition of Factor 7 mRNA, relative to untreated control cells” value in data set [3] (setting [5]) was 14%; in data set [3] (setting [7]), 22%; in data set [3] (setting [9]), 32%; in data set [3] (setting [11]), 44%; in data set [3] (setting [13]), 65%; in data set [3] (setting [15]) it was 76%. Besides, the “% Inhibition” value in data set [2] (setting [4]) is recorded as 74%.
For “422086 (antisense eT*eG*e[5mC]*eA*eT*dG*dG*dT*dG*dA*dT*dG*d[5mC]*dT*dT*e[5mC]*eT*eG*eA*eA) [compound 422086]”, the “percent inhibition of Factor 7 mRNA, relative to untreated control cells” value in data set [1] (3.125 nM) came to 8%; in data set [1] (12.5 nM) it was 46%; in data set [1] (25 nM) it was 65%; in data set [1] (50 nM), 83%; in data set [1] (100 nM) it was 90%; in data set [1] it was 26%. The “percent inhibition of Factor 7 mRNA, relative to untreated control cells” value was found to be 20% in data set [3] (setting [5]); 25% in data set [3] (setting [6]); 34% in data set [3] (setting [7]); 48% in data set [3] (setting [8]); 44% in data set [3] (setting [9]); 74% in data set [3] (setting [10]). For the same substance, the “percent inhibition of Factor 7 mRNA, relative to untreated control cells” value stood at 63% in data set [3] (setting [11]); 82% in data set [3] (setting [12]); 75% in data set [3] (setting [13]); 86% in data set [3] (setting [14]); 84% in data set [3] (setting [15]); 90% in data set [3] (setting [16]). Also, the “% Inhibition” value in data set [2] (setting [4]) stood at 81%.
As for “422183 (antisense eG*e[5mC]*eG*d[5mC]*d[5mC]*dA*d[5mC]*d[5mC]*d[5mC]*dG*d[5mC]*d[5mC]*dG*dG*d[5mC]*dT*d[5mC]*eT*eG*e[5mC]) [compound 422183]”, the “percent inhibition of Factor 7 mRNA, relative to untreated control cells” value worked out at 28% in data set [1] (3.125 nM); 56% in data set [1] (12.5 nM); 78% in data set [1] (25 nM); 84% in data set [1] (50 nM); 88% in data set [1] (100 nM); 37% in data set [1]. Also, the “percent inhibition of Factor 7 mRNA, relative to untreated control cells” value in data set [3] (setting [5]) stood at 16%; in data set [3] (setting [6]), 2%; in data set [3] (setting [7]), 28%; in data set [3] (setting [8]), 3%; in data set [3] (setting [9]), 37%; in data set [3] (setting [10]) it was 24%. Further, the “percent inhibition of Factor 7 mRNA, relative to untreated control cells” value worked out at 44% in data set [3] (setting [11]); 50% in data set [3] (setting [12]); 59% in data set [3] (setting [13]); 64% in data set [3] (setting [14]); 71% in data set [3] (setting [15]); 71% in data set [3] (setting [16]). In addition, the “% Inhibition” value in data set [2] (gapmers targeted to nucleobases 13760 to 13789 of SEQ ID NO: 1 (Table 10)) came out at 79%.
